Assay results published in patent US20260184675A1, “CHIRAL ISOMERIC SULFITE COMPOUND AND APPLICATION THEREOF” (Chengdu Hanova BioSciences Co., Ltd, priority 2024, published 2026).

What was measured:
[1] = test system: eggs of Spodoptera litura; assay: Effect on hatching of eggs of Spodoptera litura, egg piece soaking; format: in vivo; conditions: 500 ppm; for Hatching rate (%), Replicate 1 / Hatching rate (%), Replicate 2 / Hatching rate (%), Replicate 3 / Number of unhatched larvae 4 days after insecticide delivery, Replicate 1 / Number of unhatched larvae 4 days after insecticide delivery, Replicate 2 / Number of unhatched larvae 4 days after insecticide delivery, Replicate 3: Spodoptera litura eggs; for Hatching rate (%), Replicate 1 / Hatching rate (%), Replicate 2 / Hatching rate (%), Replicate 3: 4 days after delivery; for Number of unhatched larvae 4 days after insecticide delivery, Replicate 1 / Number of unhatched larvae 4 days after insecticide delivery, Replicate 2 / Number of unhatched larvae 4 days after insecticide delivery, Replicate 3: soaked 10 minutes
Method: • (1) Preparation of paper containing eggs: the egg mass was cut into small pieces, each containing about 60 eggs, soaked in a preformulated test agent for 10 minutes together with paper for egg raising (concentration of each compound of 500 ppm). After taken out, absorbent paper was used to absorb the excess solution adhered to the paper for egg raising and egg pieces. (2) Cultivation: Each egg piece was separately placed in a glass test tube (5.0 cm in height, 2.5 cm in diameter, the same below), which was sealed with plastic paper punctured with fine holes using insect needles and cultivated in an artificial climate chamber at a temperature of (24±1° C.), a relative humidity of (80±10) %, and a photoperiod of L:D=12:12. When the eggs developed until they were about to hatch, castor leaves with a diameter of about 3 cm were added for feeding the hatching larvae; • (3) Observation: the number of hatched and unhatched eggs per egg piece was checked and recorded, and the hatching rate of eggs was calculated according to the formula. Each treatment was repeated for 3 times. • (4) Survey of results: The experimental materials of each treatment group were regularly hydrated and moisturized, and the hatching of eggs was observed. On the 4th day after insecticide delivery, the number of hatched eggs for each treatment was recorded, and the survey of results was recorded in the original notebook. According to the experimental requirements and characteristics of agents, the survey time can be shortened or extended. • 1) Surveying and recording the number of hatched eggs for each treatment. • 2) Recording the developmental status of experimental eggs of Spodoptera litura, behavior status of nymphs, including abnormal phenomena such as delayed or stopped development of eggs of Spodoptera litura, etc. • (5) Calculation method: Based on the survey data, the prevention and control effect of each treatment was calculated according to the following formula, and the calculation results were kept to two decimal places. [formula] [formula]

[2] = test system: pest eggs of Tetranychus cinnabarinus; assay: Effect on hatching of pest eggs of Tetranychus cinnabarinus, leaf disc method; format: in vivo; conditions: for Hatching rate (%): 7 days after insecticide delivery; for inhibitory effect on the hatching of pest eggs of Tetranychus cinnabarinus (in words): 1 ppm
Method: • (1) Preparation of leaf discs containing eggs: 20 female adult mites of Tetranychus cinnabarinus were transferred onto leaf discs of Vicia faba with a diameter of 2.0 cm (with wetted filter paper at the bottom), then covered it with a lidded culture dish and cultivated under moisturizing conditions, the adult mites were removed within 36 hours and microscopic examination and counting were performed on leaf discs containing eggs. • (2) Investigation of egg population base: Before pesticide soaking, a microscopic examination was conducted on the egg basic number of each leaf disc, with 2 replicates set for each treatment. • (3) Pesticide soaking treatment: The leaf butterflies loaded with mite eggs were soaked in clear water and sulfite compounds for 10 seconds, respectively, then taken out and cultivated under moisturizing conditions. Each treatment should be repeated for no less than 3 times. • (4) Cultivation and observation: The […] were cultivated under normal conditions. Five days after insecticide delivery, the hatching status of mite eggs was investigated. • Note: The temperature and humidity conditions of the constant temperature and humidity incubator after the treatment should be controlled so as to avoid excessive temperature differences, which may cause generation and dripping of condensate water in the culture dish, resulting in abnormal death of eggs due to soaking in water; it is also necessary to ensure sufficient strong ambient light, without directing irradiating the leaves. • (5) Survey of Results: The experimental materials of each treatment group were regularly hydrated and moisturized, and the hatching of eggs was observed. On the 7th day after insecticide delivery, the number of hatched eggs for each treatment was recorded, and the survey of results was recorded in the original notebook. According to the experimental requirements and characteristics of agents, the survey time can be shortened or extended. • 1) Surveying and recording the number of hatched eggs for each treatment. • 2) Photographing and recording whether there was any pesticide damage to the leaf discs of Vicia faba. • 3) Recording the developmental status of experimental mite eggs, behavior status of nymph mites, including abnormal phenomena such as delayed or stopped development of mite eggs, difficulty in breaking hull for nymph mites, or painful struggles after hatching, etc. • (6) Calculation method: Based on the survey data, the prevention and control effect of each treatment was calculated according to the following formula, and the calculation results were kept to two decimal places. [formula] [formula] [table]

SMILES | Hatching rate (%) ([2]; 0.25 mg/L, Replicate 1) | Hatching rate (%) ([2]; 0.25 mg/L, Replicate 2) | Number of hatched larvae 7 days after insecticide delivery ([2]; 0.25 mg/L, Replicate 1) | Number of hatched larvae 7 days after insecticide delivery ([2]; 0.25 mg/L, Replicate 2) | Hatching rate (%) ([2]; 0.5 mg/L, Replicate 1) | Hatching rate (%) ([2]; 0.5 mg/L, Replicate 2) | Number of hatched larvae 7 days after insecticide delivery ([2]; 0.5 mg/L, Replicate 2) | Hatching rate (%) ([2]; 1 mg/L, Replicate 1) | Hatching rate (%) ([2]; 1 mg/L, Replicate 2) | Number of hatched larvae 7 days after insecticide delivery ([2]; 1 mg/L, Replicate 1) | Number of hatched larvae 7 days after insecticide delivery ([2]; 1 mg/L, Replicate 2) | inhibitory activity on the hatching of eggs of Spodoptera litura (in words) [1] | Hatching rate (%), Replicate 1 [1] | Hatching rate (%), Replicate 2 [1] | Hatching rate (%), Replicate 3 [1] | Number of unhatched larvae 4 days after insecticide delivery, Replicate 1 [1] | Number of unhatched larvae 4 days after insecticide delivery, Replicate 2 [1] | Number of unhatched larvae 4 days after insecticide delivery, Replicate 3 [1] | Number of hatched larvae 7 days after insecticide delivery ([2]; 0.5 mg/L, Replicate 1) | inhibitory effect on the hatching of pest eggs of Tetranychus cinnabarinus (in words) [2] | further results
CCC(COc1ccc(Cl)cc1Cl)OS(=O)OCCF [19-(R,R)] | 75.00% | 76.00% | 18 | 18 | 36.23% | 36.00% | 34 | 14.89% | 16.67% | 40 | 55 | – | – | – | – | – | – | – | – | – | Hatching rate (%), Replicate 1 ([1]; listed as 19-(R, R)): 50.85%; Hatching rate (%), Replicate 2 ([1]; listed as 19-(R, R)): 51.61%; Hatching rate (%), Replicate 3 ([1]; listed as 19-(R, R)): 50.79%; Number of unhatched larvae 4 days after insecticide delivery, Replicate 1 ([1]; listed as 19-(R, R)): 29; Number of unhatched larvae 4 days after insecticide delivery, Replicate 2 ([1]; listed as 19-(R, R)): 30; Number of unhatched larvae 4 days after insecticide delivery, Replicate 3 ([1]; listed as 19-(R, R)): 31
CC[C@H](COc1ccc(Cl)cc1Cl)OS(=O)OCCF (stereo partly drawn) [19-(R,S)] | 39.68% | 41.38% | 38 | 34 | 2.08% | 3.57% | 54 | 0.00% | 0.00% | 59 | 67 | good inhibitory activities | 15.63% | 15.25% | 16.67% | 54 | 50 | 50 | 47 | excellent inhibitory effects | –
CC[C@@H](COc1ccc(Cl)cc1Cl)OS(=O)OCCF (stereo partly drawn) [19-(S,R)] | 43.55% | 45.61% | 35 | 31 | 5.13% | 5.26% | 54 | 0.00% | 0.00% | 60 | 68 | good inhibitory activities | 15.79% | 15.38% | 15.38% | 48 | 55 | 44 | 74 | excellent inhibitory effects | –
CCC(COc1ccc(Cl)cc1Cl)OS(=O)OCCF [19-(S,S)] | 65.52% | 69.86% | 20 | 22 | 20.90% | 21.31% | 48 | 15.25% | 14.29% | 50 | 54 | – | – | – | – | – | – | – | 53 | – | Hatching rate (%), Replicate 1 ([1]; listed as 19-(S, S)): 50.00%; Hatching rate (%), Replicate 2 ([1]; listed as 19-(S, S)): 51.72%; Hatching rate (%), Replicate 3 ([1]; listed as 19-(S, S)): 50.91%; Number of unhatched larvae 4 days after insecticide delivery, Replicate 1 ([1]; listed as 19-(S, S)): 30; Number of unhatched larvae 4 days after insecticide delivery, Replicate 2 ([1]; listed as 19-(S, S)): 28; Number of unhatched larvae 4 days after insecticide delivery, Replicate 3 ([1]; listed as 19-(S, S)): 27
CCC(COS(=O)OCCF)Oc1ccc(Cl)cc1Cl [19′-(R,R)] | 45.07% | 44.90% | 39 | 27 | 5.77% | 4.48% | 64 | 0.00% | 0.00% | 57 | 69 | good inhibitory activities | – | – | – | – | – | – | 49 | excellent inhibitory effects | Hatching rate (%), Replicate 1 ([1]; listed as 19′-(R, R)): 17.54%; Hatching rate (%), Replicate 2 ([1]; listed as 19′-(R, R)): 16.95%; Hatching rate (%), Replicate 3 ([1]; listed as 19′-(R, R)): 19.12%; Number of unhatched larvae 4 days after insecticide delivery, Replicate 1 ([1]; listed as 19′-(R, R)): 47; Number of unhatched larvae 4 days after insecticide delivery, Replicate 2 ([1]; listed as 19′-(R, R)): 49; Number of unhatched larvae 4 days after insecticide delivery, Replicate 3 ([1]; listed as 19′-(R, R)): 55
